# Measured values from ChEMBL document CHEMBL5465560, “Selectivity Literature for EUbOPEN Chemogenomic Library” (2024).
# How the values were obtained:
# [1] = target: T1, Serine/threonine-protein kinase 17A (Homo sapiens) (UniProt Q9UEE5); assay: Selectivity interaction (Kinase panel (DSF assay)) EUB0001558a STK17A
# T1 sequence (whole entry): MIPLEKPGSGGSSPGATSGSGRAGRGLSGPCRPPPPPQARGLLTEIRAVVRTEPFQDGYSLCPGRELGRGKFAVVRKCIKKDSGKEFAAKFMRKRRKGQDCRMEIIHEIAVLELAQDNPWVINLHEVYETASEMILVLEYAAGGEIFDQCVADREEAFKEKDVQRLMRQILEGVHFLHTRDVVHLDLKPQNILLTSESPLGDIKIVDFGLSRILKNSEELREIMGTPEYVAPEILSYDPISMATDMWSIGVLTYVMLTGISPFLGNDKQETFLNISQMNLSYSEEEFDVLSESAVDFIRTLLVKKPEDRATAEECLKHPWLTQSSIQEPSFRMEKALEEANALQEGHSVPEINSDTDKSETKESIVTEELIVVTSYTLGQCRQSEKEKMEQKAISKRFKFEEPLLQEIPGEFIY
# [2] = target: Cyclin-dependent kinase 19 (Homo sapiens) (UniProt Q9BWU1); assay: Selectivity interaction (KinomeScan (DiscoverX)) EUB0000229b CDK19; conditions: at 10 µM
# Sequence of Cyclin-dependent kinase 19 (Homo sapiens) (Q9BWU1 whole entry): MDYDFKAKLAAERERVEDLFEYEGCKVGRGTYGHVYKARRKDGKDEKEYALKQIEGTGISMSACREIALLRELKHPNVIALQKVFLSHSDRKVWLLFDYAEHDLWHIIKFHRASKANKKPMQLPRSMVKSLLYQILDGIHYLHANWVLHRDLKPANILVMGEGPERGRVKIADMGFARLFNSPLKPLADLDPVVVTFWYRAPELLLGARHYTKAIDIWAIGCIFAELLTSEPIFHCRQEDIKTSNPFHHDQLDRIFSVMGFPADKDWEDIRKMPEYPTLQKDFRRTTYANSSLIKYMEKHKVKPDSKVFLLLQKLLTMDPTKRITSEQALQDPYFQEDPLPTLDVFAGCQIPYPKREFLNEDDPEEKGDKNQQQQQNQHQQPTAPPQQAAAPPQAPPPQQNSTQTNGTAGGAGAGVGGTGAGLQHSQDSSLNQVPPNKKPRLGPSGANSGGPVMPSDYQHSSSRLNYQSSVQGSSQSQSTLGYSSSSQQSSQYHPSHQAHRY
# [3] = target: T2, Tyrosine-protein kinase receptor TYRO3 (Homo sapiens) (UniProt Q06418); assay: Selectivity interaction (KinomeScan (DiscoverX)) EUB0000655a TYRO3; conditions: at 10 µM
# T2 sequence (whole entry): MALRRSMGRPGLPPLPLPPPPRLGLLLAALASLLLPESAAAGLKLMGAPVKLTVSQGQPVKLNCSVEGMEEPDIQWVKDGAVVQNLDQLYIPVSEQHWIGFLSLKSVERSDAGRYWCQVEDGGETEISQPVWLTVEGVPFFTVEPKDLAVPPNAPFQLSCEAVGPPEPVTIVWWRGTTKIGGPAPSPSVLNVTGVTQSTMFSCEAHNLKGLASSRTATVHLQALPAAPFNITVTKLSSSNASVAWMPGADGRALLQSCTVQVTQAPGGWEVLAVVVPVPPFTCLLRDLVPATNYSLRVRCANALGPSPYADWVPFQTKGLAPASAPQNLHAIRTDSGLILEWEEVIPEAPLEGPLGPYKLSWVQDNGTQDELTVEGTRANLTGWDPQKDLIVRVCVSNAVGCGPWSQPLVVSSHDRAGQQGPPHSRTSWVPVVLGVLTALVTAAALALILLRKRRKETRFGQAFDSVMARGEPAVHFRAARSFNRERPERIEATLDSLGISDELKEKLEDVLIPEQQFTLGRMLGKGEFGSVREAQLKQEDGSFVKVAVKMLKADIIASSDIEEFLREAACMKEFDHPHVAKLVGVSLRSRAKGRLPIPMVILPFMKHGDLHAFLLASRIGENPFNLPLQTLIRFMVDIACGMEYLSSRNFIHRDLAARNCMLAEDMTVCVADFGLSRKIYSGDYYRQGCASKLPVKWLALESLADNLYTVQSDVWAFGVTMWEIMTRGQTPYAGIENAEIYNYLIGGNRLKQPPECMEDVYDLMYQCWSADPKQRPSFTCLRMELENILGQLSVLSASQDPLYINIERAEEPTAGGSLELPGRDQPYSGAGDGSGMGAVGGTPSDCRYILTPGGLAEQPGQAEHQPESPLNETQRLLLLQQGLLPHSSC
# [4] = target: Serine/threonine-protein kinase/endoribonuclease IRE1 (Homo sapiens) (UniProt O75460); assay: Selectivity interaction (Kinase panel (KiNativ target engagement assay in Jurkat cells)) EUB0001635a ERN1; assay type: cell-based; conditions: Selectivity number of off-targets 0.0, Selectivity number of targets 233.0, Source Knowledge https://www.sciencedirect.com/science/article/pii/S2451945619300674?via%3Dihub, at 1 µM
# Sequence of Serine/threonine-protein kinase/endoribonuclease IRE1 (Homo sapiens) (O75460 19-977 limits assumed): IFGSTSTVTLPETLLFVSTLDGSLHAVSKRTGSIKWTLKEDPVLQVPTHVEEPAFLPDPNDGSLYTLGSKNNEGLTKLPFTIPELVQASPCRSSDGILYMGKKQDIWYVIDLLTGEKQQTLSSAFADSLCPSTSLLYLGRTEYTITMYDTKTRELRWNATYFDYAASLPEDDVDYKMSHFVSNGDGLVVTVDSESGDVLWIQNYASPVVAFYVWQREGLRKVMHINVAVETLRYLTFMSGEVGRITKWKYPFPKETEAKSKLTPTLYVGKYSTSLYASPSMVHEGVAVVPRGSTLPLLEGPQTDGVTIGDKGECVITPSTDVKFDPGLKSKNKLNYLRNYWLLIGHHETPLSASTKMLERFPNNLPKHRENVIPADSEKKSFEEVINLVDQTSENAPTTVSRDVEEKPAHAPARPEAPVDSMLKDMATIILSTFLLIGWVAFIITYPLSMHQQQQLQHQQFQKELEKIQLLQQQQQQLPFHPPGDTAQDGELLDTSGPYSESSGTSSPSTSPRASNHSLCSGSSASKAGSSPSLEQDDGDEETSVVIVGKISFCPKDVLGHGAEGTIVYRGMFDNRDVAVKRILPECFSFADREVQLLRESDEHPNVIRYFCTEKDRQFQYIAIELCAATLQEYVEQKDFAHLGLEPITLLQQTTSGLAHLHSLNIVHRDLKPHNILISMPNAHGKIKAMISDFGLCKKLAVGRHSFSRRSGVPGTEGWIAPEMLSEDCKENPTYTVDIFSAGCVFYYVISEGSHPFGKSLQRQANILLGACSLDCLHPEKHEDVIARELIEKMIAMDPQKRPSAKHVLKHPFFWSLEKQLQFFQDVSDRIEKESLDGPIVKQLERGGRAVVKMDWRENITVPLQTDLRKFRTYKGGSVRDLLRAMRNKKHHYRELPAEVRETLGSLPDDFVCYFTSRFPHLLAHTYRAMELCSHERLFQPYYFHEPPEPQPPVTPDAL
# [5] = target: Serine/threonine-protein kinase 10 (Homo sapiens) (UniProt O94804); assay: Selectivity interaction (Kinase panel (KiNativ target engagement assay in Jurkat cells)) EUB0001635a STK10; assay type: cell-based; conditions: Selectivity number of off-targets 0.0, Selectivity number of targets 233.0, Source Knowledge https://www.sciencedirect.com/science/article/pii/S2451945619300674?via%3Dihub, at 1 µM
# Sequence of Serine/threonine-protein kinase 10 (Homo sapiens) (O94804 whole entry, looked up): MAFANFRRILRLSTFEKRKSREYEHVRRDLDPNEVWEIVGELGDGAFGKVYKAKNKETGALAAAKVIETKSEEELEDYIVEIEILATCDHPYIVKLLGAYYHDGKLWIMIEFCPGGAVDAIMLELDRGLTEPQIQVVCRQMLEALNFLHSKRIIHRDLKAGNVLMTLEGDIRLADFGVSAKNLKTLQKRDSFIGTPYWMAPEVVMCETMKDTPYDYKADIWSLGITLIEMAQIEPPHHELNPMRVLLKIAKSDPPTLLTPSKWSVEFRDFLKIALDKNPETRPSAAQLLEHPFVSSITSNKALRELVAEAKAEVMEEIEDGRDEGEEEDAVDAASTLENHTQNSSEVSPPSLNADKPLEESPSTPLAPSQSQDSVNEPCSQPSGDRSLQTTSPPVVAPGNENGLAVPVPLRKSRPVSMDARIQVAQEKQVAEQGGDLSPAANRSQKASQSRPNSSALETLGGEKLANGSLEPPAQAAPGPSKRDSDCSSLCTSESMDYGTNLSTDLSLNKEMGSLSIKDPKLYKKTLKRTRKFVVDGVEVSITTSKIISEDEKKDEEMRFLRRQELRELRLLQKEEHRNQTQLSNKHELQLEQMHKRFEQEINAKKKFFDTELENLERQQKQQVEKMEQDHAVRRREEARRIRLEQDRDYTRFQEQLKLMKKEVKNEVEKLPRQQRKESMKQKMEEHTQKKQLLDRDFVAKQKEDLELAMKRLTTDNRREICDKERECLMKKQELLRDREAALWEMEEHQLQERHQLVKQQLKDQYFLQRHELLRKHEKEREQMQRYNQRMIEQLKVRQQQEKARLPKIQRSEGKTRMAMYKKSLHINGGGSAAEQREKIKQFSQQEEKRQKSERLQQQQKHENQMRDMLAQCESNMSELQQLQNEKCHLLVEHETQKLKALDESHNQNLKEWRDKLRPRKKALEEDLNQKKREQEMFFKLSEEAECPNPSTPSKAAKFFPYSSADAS
# [6] = target: CDK7/Cyclin H/MNAT1 (Homo sapiens) (UniProt P51946+P50613+P51948); assay: Selectivity interaction (Adapta Assay) EUB0001632a CDK7; assay type: protein-complex assay; conditions: at 10 µM
# [7] = target: T3, PAN2-PAN3 deadenylation complex subunit PAN3 (Homo sapiens) (UniProt Q58A45); assay: Selectivity interaction (ActivX KiNativ screen (kinase selectivity in THP-1 cell lysates)) EUB0000639a PAN3; assay type: subcellular; conditions: lysate
# T3 sequence (whole entry): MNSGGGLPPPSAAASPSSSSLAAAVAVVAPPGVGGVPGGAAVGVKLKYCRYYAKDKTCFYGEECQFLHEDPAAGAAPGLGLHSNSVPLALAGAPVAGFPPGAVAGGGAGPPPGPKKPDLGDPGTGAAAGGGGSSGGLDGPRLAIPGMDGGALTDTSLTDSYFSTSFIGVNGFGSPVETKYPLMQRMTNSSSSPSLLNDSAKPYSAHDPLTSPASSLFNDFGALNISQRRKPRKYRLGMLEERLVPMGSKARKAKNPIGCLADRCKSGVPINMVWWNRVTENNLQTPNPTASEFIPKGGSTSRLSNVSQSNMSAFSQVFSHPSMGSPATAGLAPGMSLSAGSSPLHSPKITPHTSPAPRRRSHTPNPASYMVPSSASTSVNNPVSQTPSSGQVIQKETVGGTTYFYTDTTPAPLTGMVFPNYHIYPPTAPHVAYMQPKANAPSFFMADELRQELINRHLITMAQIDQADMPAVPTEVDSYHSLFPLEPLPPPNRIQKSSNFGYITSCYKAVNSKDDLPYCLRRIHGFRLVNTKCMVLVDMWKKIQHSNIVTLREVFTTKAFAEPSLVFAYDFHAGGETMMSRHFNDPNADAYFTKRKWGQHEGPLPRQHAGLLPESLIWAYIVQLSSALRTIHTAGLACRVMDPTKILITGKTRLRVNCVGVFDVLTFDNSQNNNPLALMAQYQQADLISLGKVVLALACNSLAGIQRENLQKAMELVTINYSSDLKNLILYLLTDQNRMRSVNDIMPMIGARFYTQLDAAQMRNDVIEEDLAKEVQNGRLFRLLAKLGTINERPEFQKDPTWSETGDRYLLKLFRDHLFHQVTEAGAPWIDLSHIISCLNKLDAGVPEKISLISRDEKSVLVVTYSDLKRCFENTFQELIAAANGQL
# [8] = target: Phosphorylase b kinase gamma catalytic chain, skeletal muscle/heart isoform (Homo sapiens) (UniProt Q16816); assay: Selectivity interaction (KinomeScan (DiscoverX)) EUB0001049a PHKG1; conditions: at 1 µM
# Sequence of Phosphorylase b kinase gamma catalytic chain, skeletal muscle/heart isoform (Homo sapiens) (Q16816 whole entry, looked up, canonical isoform): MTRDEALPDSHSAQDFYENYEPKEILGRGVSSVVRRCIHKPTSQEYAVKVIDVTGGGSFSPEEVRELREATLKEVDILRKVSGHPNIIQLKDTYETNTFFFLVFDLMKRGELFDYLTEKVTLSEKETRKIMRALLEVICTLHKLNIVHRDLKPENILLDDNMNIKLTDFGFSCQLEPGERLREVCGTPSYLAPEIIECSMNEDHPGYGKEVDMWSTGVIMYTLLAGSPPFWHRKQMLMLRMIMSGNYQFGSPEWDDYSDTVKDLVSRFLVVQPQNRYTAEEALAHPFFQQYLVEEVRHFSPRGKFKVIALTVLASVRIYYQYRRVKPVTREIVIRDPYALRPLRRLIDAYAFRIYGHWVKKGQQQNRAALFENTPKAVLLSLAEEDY
# [9] = target: Ribosomal protein S6 kinase alpha-2 (Homo sapiens) (UniProt Q15349); assay: Selectivity interaction (KinomeScan (DiscoverX)) EUB0001049a RPS6KA2; conditions: at 1 µM
# Sequence of Ribosomal protein S6 kinase alpha-2 (Homo sapiens) (Q15349 whole entry): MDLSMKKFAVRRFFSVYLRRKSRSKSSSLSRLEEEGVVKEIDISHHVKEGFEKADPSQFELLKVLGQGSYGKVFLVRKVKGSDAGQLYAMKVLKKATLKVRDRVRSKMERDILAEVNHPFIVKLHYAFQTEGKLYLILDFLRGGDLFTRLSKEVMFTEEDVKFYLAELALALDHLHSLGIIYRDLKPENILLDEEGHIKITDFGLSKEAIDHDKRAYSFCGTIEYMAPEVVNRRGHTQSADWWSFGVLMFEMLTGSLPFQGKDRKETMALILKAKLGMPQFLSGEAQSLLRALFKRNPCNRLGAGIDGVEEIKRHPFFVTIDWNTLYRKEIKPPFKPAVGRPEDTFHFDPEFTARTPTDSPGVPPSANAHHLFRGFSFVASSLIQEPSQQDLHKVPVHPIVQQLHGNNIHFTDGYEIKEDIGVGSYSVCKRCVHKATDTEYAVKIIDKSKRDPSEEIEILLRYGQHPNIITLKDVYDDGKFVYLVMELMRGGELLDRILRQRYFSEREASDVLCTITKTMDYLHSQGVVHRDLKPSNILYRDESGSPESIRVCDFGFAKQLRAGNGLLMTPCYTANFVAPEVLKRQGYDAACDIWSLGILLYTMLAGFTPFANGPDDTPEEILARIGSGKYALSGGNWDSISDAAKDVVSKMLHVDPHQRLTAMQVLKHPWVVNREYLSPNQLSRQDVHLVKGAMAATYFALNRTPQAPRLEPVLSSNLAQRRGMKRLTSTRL
# [10] = target: Serine/threonine-protein kinase mTOR (Homo sapiens, UniProt P42345); assay: Selectivity interaction (KinomeScan (DiscoverX)) EUB0001619a MTOR; conditions: at 1 µM
smiles,measurement,setting,value
CC(C)(O)[C@H](F)CN1Cc2cc(NC(=O)c3cnn4cccnc34)c(N3CCOCC3)cc2C1=O,dTM,[1],0.9 K
COc1cc(N(C)c2ccnc3ccc(C(F)(F)F)cc23)cc(OC)c1OC,% binding,[2],69%
CN(C)CCOc1ccc(-c2nc(-c3ccncc3)c(-c3ccc4c(c3)CC/C4=N\O)[nH]2)cc1,% of control,[3],100%
C=CC(=O)Nc1ccc(C(=O)Nc2[nH]nc3c2CN(C(=O)N[C@H](CN(C)C)c2ccccc2)C3(C)C)cc1,% of engagement,[4],-0.9%
same,% of engagement,[5],-2.2%
Cn1cc(-n2cnc3c(NCc4nc5cc(Cl)c(Cl)cc5[nH]4)nc(N4CCOCC4)nc32)cn1,% of inhibition,[6],-13.5%
CC[C@@H]1[C@H](F)C(=O)N[C@@H]1COc1nccc2cc(C(N)=O)c(OC)cc12 [ZIMLOVISERTIB],% of inhibition,[7]; at 0.01 µM,20.4%
same,% of inhibition,[7]; at 0.04 µM,-4.3%
same,% of inhibition,[7]; at 0.2 µM,-4.4%
same,% of inhibition,[7]; at 1 µM,-2.8%
same,% of inhibition,[7]; at 5 µM,-19.6%
COc1cc(Nc2nc(C)cc(-c3cnn4nc(OC)ccc34)n2)cc(C(F)(F)F)c1,% of control,[8],85%
same,% of control,[9],90%
N#Cc1cccc(-c2c[nH]c3ncnc(N4CCOCC4)c23)c1,% of control,[10],58%
